According to patent publication US12324802B2, “Modulators of cystic fibrosis transmembrane conductance regulator” (Vertex Pharmaceuticals Incorporated, priority 2020, dated 2025):

Target: T1, CFTR (F508del/MF-HBE cells) (Homo sapiens, UniProt P13569, DEL508-508)
T1 construct: human bronchial epithelial (HBE) cells derived from CF subjects heterozygous for F508del and a minimal function CFTR mutation; endogenous in cells; host or cells: primary human bronchial epithelial cells from CF subjects (F508del/MF genotype)
Test: Ussing chamber assay of CFTR-mediated short-circuit currents (identification of potentiator compounds)
Type: cell-based
Conditions: CFTR-mediated ISC in F508del/MF-HBE cells; incubated 18-24 hours at 37° C. with 10 μM (14S)-8-[3-(2-{dispiro[2.0.2.1]heptan-7-yl}ethoxy)-1H-pyrazol-1-yl]-...-2,2,4-trione, 20% human serum
Summary of the method: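 F508del/minimal-function HBE cultures grown at air-liquid interface were incubated for 18–24 h at 37 °C with potentiator plus 10 μM corrector, in 20% human serum, and compounds stayed present during recording. Transepithelial ISC was recorded at 0 mV and 37 °C with 30 μM apical amiloride. CFTR current was taken as the peak response to 20 μM forskolin minus the steady state after a 20 μM inhibitor cocktail.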

T1 sequence (P13569 with tags, fused parts or gaps DEL508-508): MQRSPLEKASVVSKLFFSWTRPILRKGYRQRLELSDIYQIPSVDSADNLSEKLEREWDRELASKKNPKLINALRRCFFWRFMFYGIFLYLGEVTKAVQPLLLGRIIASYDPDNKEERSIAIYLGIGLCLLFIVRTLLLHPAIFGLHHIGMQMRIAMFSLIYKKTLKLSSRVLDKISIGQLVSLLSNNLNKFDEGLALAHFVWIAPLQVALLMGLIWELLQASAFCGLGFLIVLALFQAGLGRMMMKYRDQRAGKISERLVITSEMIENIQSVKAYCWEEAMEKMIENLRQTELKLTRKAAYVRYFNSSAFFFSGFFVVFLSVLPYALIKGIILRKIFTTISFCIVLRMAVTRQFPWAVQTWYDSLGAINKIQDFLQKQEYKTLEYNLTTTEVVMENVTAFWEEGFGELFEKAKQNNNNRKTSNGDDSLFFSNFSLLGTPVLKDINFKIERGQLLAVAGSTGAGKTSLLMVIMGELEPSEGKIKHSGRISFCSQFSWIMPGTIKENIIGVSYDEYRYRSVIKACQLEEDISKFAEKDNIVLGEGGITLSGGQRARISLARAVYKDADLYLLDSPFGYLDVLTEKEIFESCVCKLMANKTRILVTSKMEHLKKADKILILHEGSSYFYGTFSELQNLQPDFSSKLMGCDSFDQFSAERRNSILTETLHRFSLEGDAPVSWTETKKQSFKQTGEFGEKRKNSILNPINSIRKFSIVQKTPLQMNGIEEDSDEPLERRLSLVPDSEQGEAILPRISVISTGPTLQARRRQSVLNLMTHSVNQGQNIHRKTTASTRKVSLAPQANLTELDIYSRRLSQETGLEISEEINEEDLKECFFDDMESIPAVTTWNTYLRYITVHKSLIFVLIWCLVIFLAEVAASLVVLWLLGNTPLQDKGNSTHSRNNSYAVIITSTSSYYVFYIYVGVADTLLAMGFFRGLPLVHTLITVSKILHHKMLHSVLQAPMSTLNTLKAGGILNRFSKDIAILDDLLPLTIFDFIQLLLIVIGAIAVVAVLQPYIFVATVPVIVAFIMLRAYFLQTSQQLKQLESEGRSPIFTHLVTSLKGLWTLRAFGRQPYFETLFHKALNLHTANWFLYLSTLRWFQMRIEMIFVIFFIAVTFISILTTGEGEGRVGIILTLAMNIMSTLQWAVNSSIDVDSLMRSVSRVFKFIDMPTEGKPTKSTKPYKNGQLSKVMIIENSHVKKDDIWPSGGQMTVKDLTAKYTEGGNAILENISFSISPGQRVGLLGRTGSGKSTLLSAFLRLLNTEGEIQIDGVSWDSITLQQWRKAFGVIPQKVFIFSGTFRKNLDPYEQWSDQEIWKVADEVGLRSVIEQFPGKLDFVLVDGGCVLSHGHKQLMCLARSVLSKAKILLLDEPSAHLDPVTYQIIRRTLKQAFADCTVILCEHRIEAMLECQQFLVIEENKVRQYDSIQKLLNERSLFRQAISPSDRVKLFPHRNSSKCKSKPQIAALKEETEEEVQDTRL

EC50	SMILES
> 1000 nM	CCOC(=O)C1CCCCCC(O)(C(F)(F)F)C2=NN=C(O2)c2nc(c(C(F)(F)F)cc2N)N1 (single isomer, unassigned) [Compound 97, ethyl 17-amino-6-hydroxy-6,15-bis(trifluoromethyl)-19-oxa-3,4,13,18-tetrazatricyclo[12.3.1.12,5]nonadeca-1(18),2,4,14,16-pentaene-12-carboxylate]
> 1000 nM	CP(C)(=O)c1cc(N)c2nc1N1CCC[C@H]1CCCCCC(O)(C(F)(F)F)C1=NN=C2O1 (single isomer, unassigned) [Compound 98]
> 1000 nM	CP(C)(=O)c1cc(N)c2nc1N1CCC[C@H]1CCCCCC(O)(C(F)(F)F)C1=NN=C2O1 (single isomer, unassigned) [Compound 99]
500 to 1000 nM	Nc1cc(C(F)(F)F)c2nc1-c1nnc(o1)C(O)(CO)CCCCC[C@@H]1CCCN21 (single isomer, unassigned) [Compound 100]
< 500 nM	Nc1cc(C(F)(F)F)c2nc1-c1nnc(o1)C(O)(CO)CCCCC[C@@H]1CCCN21 (single isomer, unassigned) [Compound 101]
< 500 nM	Nc1cc(C(F)(F)F)c2nc1-c1nnc(o1)C(O)(C(F)(F)F)CCCCCC(CO)N2 (single isomer, unassigned) [Compound 102, 17-amino-12-(hydroxymethyl)-6,15-bis(trifluoromethyl)-19-oxa-3,4,13,18-tetrazatricyclo[12.3.1.12,5]nonadeca-1(18),2,4,14,16-pentaen-6-ol]
< 500 nM	Nc1cc(C(F)(F)F)c2nc1-c1nnc(o1)C(O)(C(F)(F)F)CCCCCC(CO)N2 (single isomer, unassigned) [Compound 103, 17-amino-12-(hydroxymethyl)-6,15-bis(trifluoromethyl)-19-oxa-3,4,13,18-tetrazatricyclo[12.3.1.12,5]nonadeca-1(18),2,4,14,16-pentaen-6-ol]
< 500 nM	Nc1cc(C(F)(F)F)c2nc1-c1nnc(o1)C(O)(C(F)(F)F)CCCCCC(CO)N2 (single isomer, unassigned) [Compound 104, 17-amino-12-(hydroxymethyl)-6,15-bis(trifluoromethyl)-19-oxa-3,4,13,18-tetrazatricyclo[12.3.1.12,5]nonadeca-1(18),2,4,14,16-pentaen-6-ol]
> 1000 nM	Nc1cc(C(F)(F)F)c2nc1-c1nnc(o1)C(O)(C(F)(F)F)CCCCCC(CO)N2 (single isomer, unassigned) [Compound 105, 17-amino-12-(hydroxymethyl)-6,15-bis(trifluoromethyl)-19-oxa-3,4,13,18-tetrazatricyclo[12.3.1.12,5]nonadeca-1(18),2,4,14,16-pentaen-6-ol]
< 500 nM	Nc1cc(C(F)(F)F)c2nc1-c1nnc(o1)C(O)(C(F)(F)F)CCCCCCC(=O)N2 (single isomer, unassigned) [Compound 106, 18-Amino-6-hydroxy-6,16-bis(trifluoromethyl)-20-oxa-3,4,14,19-tetrazatricyclo[13.3.1.12,5]icosa-1(19),2,4,15,17-pentaen-13-one]
> 1000 nM	Nc1cc(C(F)(F)F)c2nc1-c1nnc(o1)C(O)(C(F)(F)F)CCCCCCC(=O)N2 (single isomer, unassigned) [Compound 107, 18-amino-6-hydroxy-6,16-bis(trifluoromethyl)-20-oxa-3,4,14,19-tetrazatricyclo[13.3.1.12,5]icosa-1(19),2,4,15,17-pentaen-13-one]
< 500 nM	Nc1cc(C(F)(F)F)c2nc1-c1nnc(o1)C(O)(C(F)(F)F)CCCCCC(=O)N2 (single isomer, unassigned) [Compound 108, 17-amino-6-hydroxy-6,15-bis(trifluoromethyl)-19-oxa-3,4,13,18-tetrazatricyclo[12.3.1.12,5]nonadeca-1(18),2,4,14,16-pentaen-12-one]
> 1000 nM	Nc1cc(C(F)(F)F)c2nc1-c1nnc(o1)C(O)(C(F)(F)F)CCCCCC(=O)N2 (single isomer, unassigned) [Compound 109, 17-amino-6-hydroxy-6,15-bis(trifluoromethyl)-19-oxa-3,4,13,18-tetrazatricyclo[12.3.1.12,5]nonadeca-1(18),2,4,14,16-pentaen-12-one]
